PMC9917735, “Optimization of the Hemolysis Assay for the Assessment of Cytotoxicity” (International Journal of Molecular Sciences, 2023)
In brackets after ≈: the same amount, converted by molar mass. Where two headings read alike, the source gives them in different places. Residues, ends and D or L forms follow the SMILES beside them. *: point of attachment. Hexanoyl = CCCCCC(=O)*

Key:
[1] = tested on: human whole blood; conditions: for Calculated hemolysis ratio: human whole blood, peptides 100 μM, 60 min 37 °C, neg. PBS, 3 x 2 replicates
[2] = tested on: mouse erythrocytes; conditions: AMPs 100 μM, 1 hour 37 °C, pos. 10% Triton X-100, neg. PBS, 3 x 2 replicates
From the text: (§1) Cytotoxicity studies are important during characterization of novel compounds or materials intended for interactions within human biological systems in vivo. Evaluation of the extent to which the compound induces disruption of the membrane of erythrocytes (red blood cells), thereby causing release of cellular content, often constitutes an initial step in such cytotoxicity assessments. The assay used in this context is generally referred to as the hemolysis assay, which has the advantages of being cheap, accessible, and simple to perform. Blood is drawn from a human or an animal, and next, the washed erythrocytes are incubated together with the compound or material under investigation. If the compound causes hemolysis, hemoglobin (along with other cellular constituents) will be released into the supernatant.
(§2) Blood from mice, rats, and rabbits was provided by the Department of Comparative Medicine at Oslo University Hospital (Marianne Aannestad). For mice and rats, the blood was collected from the heart by using 25 G and 21 G needles, respectively, whereas for rabbits, the blood was collected by free bleed through the ear using a yellow neoflon (24 G). All animals were wild type and anesthetized prior to the procedure.
(§3) All blood was collected in Lithium Heparin tubes 4 mL (Greiner Bio-One, Kremsmünster, Austria) or Coagulation sodium citrate 3.2% tubes 3 mL (Greiner Bio-One).
(§4) AMP 2 contained an N-terminal hexanoic acid moiety, whereas all peptides contained amidated C-termini. These three peptides were synthesized by Genscript Inc. (Piscataway, NJ, USA), and stock solutions of 1 mg/mL were made from the purchased powders. […] All peptides were diluted to yield a 100 μM final concentration in the hemolysis assays.
(§5) Triton X-100 (T8787) and Tween-20 (P2287) detergents were purchased from Sigma Aldrich and diluted to obtain 10% stock solutions by weighing (w/v). A sodium Dodecyl Sulfate (SDS) 10% solution was purchased from Invitrogen (Waltham, MA, USA, 15553027). All subsequent dilutions annotated in figures were made from these stocks.
(§6) As soon as possible after phlebotomy, the blood samples were centrifuged at 1700× g for 5 min. The supernatant was removed by aspiration and 2 mL of PBS pH 7 was added. The washing step was repeated three times or until the supernatant was clear. After final aspiration, the remaining pellet was diluted 1:100 in PBS pH 7 to obtain a 1% erythrocyte suspension (or 1:100, 1:50, and 1:20 for assays testing the effect of erythrocyte concentration). For experiments using whole blood, the washing steps were not performed, but downstream experimentation was identical. For experiments performed with 96-well plates, 50 μL of test compound, water, or detergent were mixed with 50 μL of blood sample (1% erythrocyte suspension or whole blood). For experiments using larger volumes, 250 μL of test compound, water, or detergent were mixed with 250 μL blood sample in an Eppendorf tube. Samples were subsequently incubated at 37 °C for 60 min (or 15, 30, 60, 90, or 120 min for assays evaluating the effect of incubation time). After incubation, the plates/tubes were centrifuged at 1700× g for 5 min, and then 50 μL of the supernatants were transferred to transparent, flat-bottom 96-well plates (Anicrin, A013418). Finally, absorption was measured at 405, 530, and 570 nm in a Victor Nivo Multimode microplate reader (Perkin Elmer, Waltham, MA, USA).

[3] = tested on: rabbit erythrocytes; conditions: AMPs 100 μM, 1 hour 37 °C, pos. 10% Triton X-100, neg. PBS, 3 x 2 replicates
From the text: as §1, §2, §3, §4, §5, §6

[4] = tested on: rat erythrocytes; conditions: AMPs 100 μM, 1 hour 37 °C, pos. 10% Triton X-100, neg. PBS, 3 x 2 replicates
From the text: as §1, §2, §3, §4, §5, §6

[5] = tested on: rabbit whole blood; conditions: for Hemolysis ratio: rabbit whole blood, AMPs 100 μM, 1 hour 37 °C, 3 x 2 replicates
From the text: as §1, §2, §3, §4, §5, §6

[6] = tested on: washed human erythrocytes; assay: Flow cytometry of treated erythrocytes with live/dead amine-reactive stain; format: cell-based; conditions: washed human erythrocytes treated 60 minutes, AMPs 100 μM, amine-reactive dye 488, flow cytometry 533/30 nm
Method: Briefly, a 1% washed erythrocyte solution was diluted to ~10^5 cells/mL and 0.4% Trypan blue (1:1 ratio) was added before 10 μL of the stained cell suspension was added to the Countess cell counting chamber slide. After a 30 s incubation, the slide was inserted into the instrument for automatic cell counting.
The Countess II automated cell counter (see above) was used to adjust the negative control sample to ~10^5 cells/mL and to subsequently dilute all samples by the same factor. Then, 0.5 μL of live/dead amine-reactive dye 488 (Fisher Scientific, Waltham, MA, USA) was added to 0.5 mL cell suspension and incubated for 30 min protected from light. Subsequently, the samples were washed twice with PBS pH 7 containing 1% bovine serum albumin (BSA), and finally resuspended in PBS pH 7 with 1% BSA. Cells were next counted, and the fluorescence measured using the 533/30 nm filter in an Accuri C6 flow cytometer (BD Biosciences, Franklin Lakes, NJ, USA).

[7] = tested on: washed human erythrocytes; assay: Hemolysis assay, washed human erythrocytes
[8] = tested on: E. coli; conditions: E. coli

CCCCCC(=O)N[C@@H](CCSC)C(=O)N[C@@H](CCCCN)C(=O)N[C@@H](CCCNC(=N)N)C(=O)N[C@@H](CCCCN)C(=O)N[C@@H](CCCCN)C(=O)N[C@@H](CCCCN)C(=O)N[C@H](C(=O)N[C@@H](CC(C)C)C(=O)N[C@H](C(=O)N[C@@H](CCCCN)C(=O)N[C@@H](CCCCN)C(=O)N[C@H](C(=O)N[C@@H](CC(C)C)C(=O)N[C@@H](CCCCN)C(=O)N[C@@H](CC(C)C)C(=O)N[C@@H](CCCCN)C(=O)N[C@@H](CO)C(=O)N[C@@H](CO)C(=O)N[C@@H](C)C(=O)N[C@@H](Cc1ccc(O)cc1)C(N)=O)C(C)C)[C@@H](C)CC)[C@@H](C)CC [AMP 2] (Hexanoyl-MKRKKKILIKKVLKLKSSAY-NH2)
Calculated hemolysis ratio ([1]; OD 405 nm (signal saturated), pos. 10% SDS): 0.4 ± 0.2%
Calculated hemolysis ratio ([1]; OD 530 nm, pos. 10% SDS): 0.2%
Calculated hemolysis ratio ([1]; OD 570 nm, pos. 10% Triton X-100 (table title; text says 10% SDS)): −0.1%
Fold reduction in HR in human whole blood in comparison with washed erythrocytes measured at 405 nm ([1]; whole blood HR with 10% SDS as positive control (Table 5) vs washed erythrocytes (Table 6), 100 μM): > 41 fold
Hemolysis ratio ([2]; Table S4: washed mouse erythrocytes, OD 405 nm): 0.1 +/- 2%
Hemolysis ratio ([2]; washed mouse erythrocytes, OD 530 nm): -11.8 +/- 8%
Hemolysis ratio ([2]; washed mouse erythrocytes, OD 570 nm): -2.7 +/- 1.9%
Hemolysis ratio ([3]; Table S4: washed rabbit erythrocytes, OD 405 nm): 4.6 +/- 0.7%
Hemolysis ratio ([3]; washed rabbit erythrocytes, OD 530 nm): 1.7 +/- 3.6%
Hemolysis ratio ([3]; washed rabbit erythrocytes, OD 570 nm): 2.2 +/- 1.4%
Hemolysis ratio ([4]; Table S4: washed rat erythrocytes, OD 405 nm): 5.2 +/- 1.9%
Hemolysis ratio ([4]; washed rat erythrocytes, OD 530 nm): 2.6 +/- 5.7%
Hemolysis ratio ([4]; washed rat erythrocytes, OD 570 nm): 3.3 +/- 3%
Fold decrease of hemolytic effect in rabbit whole blood vs washed rabbit erythrocytes ([5]; cf. Tables S3 and S4, 100 μM): 23 fold
Hemolysis ratio ([5]; OD 405 nm, neg. PBS): 0.6 +/- 3.2%
Hemolysis ratio ([5]; OD 530 nm, pos. 10% SDS, neg. PBS): 0.2 +/- 0.6%
Hemolysis ratio ([5]; OD 570 nm, pos. 10% Triton X-100, neg. PBS): 0.2 +/- 0.5%
Fluorescence intensity per cell of remaining intact cells (live/dead stain) [6]: low fluorescence
Calculated hemolysis ratio ([7]; 1% washed human erythrocytes, OD 530 nm, peptides 100 μM, 60 min 37 °C, pos. 10% Triton X-100, neg. PBS, 3 x 2 replicates): 5.2 ± 3%
Calculated hemolysis ratio ([7]; 1% washed human erythrocytes, OD 570 nm, peptides 100 μM, 60 min 37 °C, pos. 10% Triton X-100, neg. PBS, 3 x 2 replicates): 4.8 ± 6.6%
Calculated Hemolysis (%) ([7]; 2% pooled human erythrocytes, AMPs 100 µM, 60 min 37 °C, 405 nm, pos. 10% Triton X-100, neg. PBS, 3 x 2 replicates): 5.6 ± 0.8%
Calculated Hemolysis (%) ([7]; 5% pooled human erythrocytes, AMPs 100 µM, 60 min 37 °C, 405 nm, pos. 10% Triton X-100, neg. PBS, 3 x 2 replicates): 5.0 ± 3.3%
Calculated hemolysis ratio ([7]; Table 1: 1% human erythrocytes, 100 µM, 60 min 37 °C, OD 405 nm, pos. 10% Triton X-100, neg. PBS, mean ± SD, 3 experimental x 2 technical replicates): 8.5 ± 1.4%
Calculated hemolysis ratio ([7]; Table 2: pooled blood from all 10 individuals, 1% erythrocytes, AMPs 100 µM, 60 min 37 °C, 405 nm, pos. 10% Triton X, neg. PBS, 3 x 2 replicates): 12.4 ± 3.1%
Calculated Hemolysis (%) ([7]; Table 3: 1% pooled human erythrocytes, AMPs 100 µM, 60 min 37 °C, 405 nm, pos. 10% Triton X-100, neg. PBS, 3 x 2 replicates): 12.4 ± 3.1%
Calculated hemolysis ratio ([7]; Table 4: incubation 60 min, 37 °C, 1% human erythrocytes, AMPs 100 µM, 405 nm, pos. 10% Triton X-100, neg. PBS, 3 biological x 2 technical replicates): 7.8 ± 1.3%
Calculated hemolysis ratio ([7]; Table 6: 1% washed human erythrocytes, OD 405 nm, peptides 100 μM, 60 min 37 °C, pos. 10% Triton X-100, neg. PBS, 3 x 2 replicates): 8.2 ± 1.4%
Calculated hemolysis ratio ([7]; human individual # 1, 1% erythrocytes, AMPs 100 µM, 60 min 37 °C, 405 nm, pos. 10% Triton X, neg. PBS, 3 x 2 replicates): 8.2 ± 1.3%
Calculated hemolysis ratio ([7]; human individual # 2, 1% erythrocytes, AMPs 100 µM, 60 min 37 °C, 405 nm, pos. 10% Triton X, neg. PBS, 3 x 2 replicates): 10 ± 0.7%
Calculated hemolysis ratio ([7]; human individual # 3, 1% erythrocytes, AMPs 100 µM, 60 min 37 °C, 405 nm, pos. 10% Triton X, neg. PBS, 3 x 2 replicates): 9.8 ± 0.8%
Calculated hemolysis ratio ([7]; human individual # 4, 1% erythrocytes, AMPs 100 µM, 60 min 37 °C, 405 nm, pos. 10% Triton X, neg. PBS, 3 x 2 replicates): 10.4 ± 0.9%
Calculated hemolysis ratio ([7]; human individual # 5, 1% erythrocytes, AMPs 100 µM, 60 min 37 °C, 405 nm, pos. 10% Triton X, neg. PBS, 3 x 2 replicates): 11 ± 1%
Calculated hemolysis ratio ([7]; human individual # 6, 1% erythrocytes, AMPs 100 µM, 60 min 37 °C, 405 nm, pos. 10% Triton X, neg. PBS, 3 x 2 replicates): 6.4 ± 0.7%
Calculated hemolysis ratio ([7]; human individual # 7, 1% erythrocytes, AMPs 100 µM, 60 min 37 °C, 405 nm, pos. 10% Triton X, neg. PBS, 3 x 2 replicates): 8.9 ± 0.8%
Calculated hemolysis ratio ([7]; human individual # 8, 1% erythrocytes, AMPs 100 µM, 60 min 37 °C, 405 nm, pos. 10% Triton X, neg. PBS, 3 x 2 replicates): 9.1 ± 1.1%
Calculated hemolysis ratio ([7]; human individual # 9, 1% erythrocytes, AMPs 100 µM, 60 min 37 °C, 405 nm, pos. 10% Triton X, neg. PBS, 3 x 2 replicates): 9.6 ± 1%
Calculated hemolysis ratio ([7]; human individual # 10, 1% erythrocytes, AMPs 100 µM, 60 min 37 °C, 405 nm, pos. 10% Triton X, neg. PBS, 3 x 2 replicates): 9.8 ± 0.7%
Calculated hemolysis ratio ([7]; incubated in polypropylene tubes, 1% washed human erythrocytes, peptides 100 μM, 60 min 37 °C, 405 nm, pos. 10% Triton X-100, neg. PBS, 3 x 2 replicates): 8.2 ± 2.6%
Calculated hemolysis ratio ([7]; incubated in polystyrene tubes, 1% washed human erythrocytes, peptides 100 μM, 60 min 37 °C, 405 nm, pos. 10% Triton X-100, neg. PBS, 3 x 2 replicates): 9.7 ± 3.4%
Calculated hemolysis ratio ([7]; incubation 15 min, 37 °C, 1% human erythrocytes, AMPs 100 µM, 405 nm, pos. 10% Triton X-100, neg. PBS, 3 biological x 2 technical replicates): 7.8 ± 1.1%
Calculated hemolysis ratio ([7]; incubation 30 min, 37 °C, 1% human erythrocytes, AMPs 100 µM, 405 nm, pos. 10% Triton X-100, neg. PBS, 3 biological x 2 technical replicates): 7.4 ± 1.2%
Calculated hemolysis ratio ([7]; incubation 90 min, 37 °C, 1% human erythrocytes, AMPs 100 µM, 405 nm, pos. 10% Triton X-100, neg. PBS, 3 biological x 2 technical replicates): 8 ± 0.8%
Calculated hemolysis ratio ([7]; incubation 120 min, 37 °C, 1% human erythrocytes, AMPs 100 µM, 405 nm, pos. 10% Triton X-100, neg. PBS, 3 biological x 2 technical replicates): 8.6 ± 1.4%
Observed hemolytic properties (qualitative) ([7]; reason for choice of the AMPs): low
Calculated hemolysis ratio ([7]; total incubation volume 100 μL, 1% washed human erythrocytes, peptides 100 μM, 60 min 37 °C, 405 nm, pos. 10% Triton X-100, neg. PBS, 3 x 2 replicates): 9.7 ± 3.4%
Calculated hemolysis ratio ([7]; total incubation volume 500 μL, 1% washed human erythrocytes, peptides 100 μM, 60 min 37 °C, 405 nm, pos. 10% Triton X-100, neg. PBS, 3 x 2 replicates): 8.8 ± 3.9%
Minimum inhibitory concentration (E. coli) [8]: 4 µM (≈ 10 µg/mL)
